Reference: ChEMBL document CHEMBL5291721, “A preclinical secondary pharmacology resource illuminates target-adverse drug reaction associations of marketed drugs” (Nat Commun, 2023)

How the values were obtained:
Androgen receptor = target: T1, Androgen receptor (Rattus norvegicus, UniProt P15207)
T1 sequence (P15207 whole entry): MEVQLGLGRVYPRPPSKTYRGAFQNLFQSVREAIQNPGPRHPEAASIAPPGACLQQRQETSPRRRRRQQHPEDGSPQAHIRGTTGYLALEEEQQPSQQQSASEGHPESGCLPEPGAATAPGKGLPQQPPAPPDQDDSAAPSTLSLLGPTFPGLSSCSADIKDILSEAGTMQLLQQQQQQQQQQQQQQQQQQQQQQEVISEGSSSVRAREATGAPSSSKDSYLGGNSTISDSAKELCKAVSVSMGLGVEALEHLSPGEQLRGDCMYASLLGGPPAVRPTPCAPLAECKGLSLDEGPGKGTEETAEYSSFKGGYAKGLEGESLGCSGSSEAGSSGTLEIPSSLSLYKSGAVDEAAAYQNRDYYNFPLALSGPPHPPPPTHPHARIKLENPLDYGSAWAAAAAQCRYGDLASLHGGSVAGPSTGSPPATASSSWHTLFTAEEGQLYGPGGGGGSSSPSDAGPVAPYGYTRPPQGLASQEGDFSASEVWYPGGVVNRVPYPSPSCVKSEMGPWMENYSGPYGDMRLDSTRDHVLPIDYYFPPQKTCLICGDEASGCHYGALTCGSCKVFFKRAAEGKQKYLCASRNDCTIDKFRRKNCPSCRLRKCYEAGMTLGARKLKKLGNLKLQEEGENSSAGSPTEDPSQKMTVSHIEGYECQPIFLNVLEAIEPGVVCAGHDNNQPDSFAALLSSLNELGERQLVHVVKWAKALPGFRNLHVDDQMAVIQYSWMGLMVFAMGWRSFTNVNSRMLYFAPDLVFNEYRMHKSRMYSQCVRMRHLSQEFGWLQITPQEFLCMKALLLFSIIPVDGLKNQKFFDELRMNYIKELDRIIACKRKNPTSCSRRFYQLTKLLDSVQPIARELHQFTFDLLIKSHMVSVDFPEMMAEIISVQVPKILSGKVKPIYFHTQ

[1] = target: T2, Muscarinic acetylcholine receptor M2 (Homo sapiens, UniProt P08172)
T2 sequence (P08172 whole entry): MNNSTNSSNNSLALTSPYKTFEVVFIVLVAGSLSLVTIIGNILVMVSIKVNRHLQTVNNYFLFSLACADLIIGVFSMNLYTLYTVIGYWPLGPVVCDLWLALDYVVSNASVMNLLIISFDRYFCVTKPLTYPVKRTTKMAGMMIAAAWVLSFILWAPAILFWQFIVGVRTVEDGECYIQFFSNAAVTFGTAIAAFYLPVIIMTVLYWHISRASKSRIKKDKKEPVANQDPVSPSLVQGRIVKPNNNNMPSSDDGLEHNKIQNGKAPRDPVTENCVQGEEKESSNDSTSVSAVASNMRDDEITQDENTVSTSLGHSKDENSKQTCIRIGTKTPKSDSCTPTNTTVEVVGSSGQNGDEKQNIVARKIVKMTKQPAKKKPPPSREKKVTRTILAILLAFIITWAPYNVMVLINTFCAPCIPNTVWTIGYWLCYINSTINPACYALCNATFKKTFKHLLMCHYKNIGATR

Histamine H2 receptor = Histamine H2 receptor (Homo sapiens, UniProt P25021)
[2] = target: T3, Alpha-1A adrenergic receptor (Homo sapiens, UniProt P35348)
T3 sequence (P35348 whole entry): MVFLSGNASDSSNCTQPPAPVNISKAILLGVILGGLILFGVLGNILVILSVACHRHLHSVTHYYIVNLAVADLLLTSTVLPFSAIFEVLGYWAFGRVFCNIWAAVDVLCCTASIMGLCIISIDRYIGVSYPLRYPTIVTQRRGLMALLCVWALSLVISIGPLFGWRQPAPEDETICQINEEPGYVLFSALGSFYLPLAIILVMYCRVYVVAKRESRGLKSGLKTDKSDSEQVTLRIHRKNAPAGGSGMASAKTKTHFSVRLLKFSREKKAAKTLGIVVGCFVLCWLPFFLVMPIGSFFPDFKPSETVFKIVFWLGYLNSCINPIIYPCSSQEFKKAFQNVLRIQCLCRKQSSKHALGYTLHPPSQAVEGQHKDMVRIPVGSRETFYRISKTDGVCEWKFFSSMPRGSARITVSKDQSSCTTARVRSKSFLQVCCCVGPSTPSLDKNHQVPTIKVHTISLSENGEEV

[3] = target: 5-hydroxytryptamine receptor 2B (Homo sapiens, UniProt P41595)
[4] = target: Neurotensin receptor type 1 (Homo sapiens, UniProt P30989)
Progesterone receptor = target: T4, Progesterone receptor (Homo sapiens, UniProt P06401)
T4 sequence (P06401 whole entry): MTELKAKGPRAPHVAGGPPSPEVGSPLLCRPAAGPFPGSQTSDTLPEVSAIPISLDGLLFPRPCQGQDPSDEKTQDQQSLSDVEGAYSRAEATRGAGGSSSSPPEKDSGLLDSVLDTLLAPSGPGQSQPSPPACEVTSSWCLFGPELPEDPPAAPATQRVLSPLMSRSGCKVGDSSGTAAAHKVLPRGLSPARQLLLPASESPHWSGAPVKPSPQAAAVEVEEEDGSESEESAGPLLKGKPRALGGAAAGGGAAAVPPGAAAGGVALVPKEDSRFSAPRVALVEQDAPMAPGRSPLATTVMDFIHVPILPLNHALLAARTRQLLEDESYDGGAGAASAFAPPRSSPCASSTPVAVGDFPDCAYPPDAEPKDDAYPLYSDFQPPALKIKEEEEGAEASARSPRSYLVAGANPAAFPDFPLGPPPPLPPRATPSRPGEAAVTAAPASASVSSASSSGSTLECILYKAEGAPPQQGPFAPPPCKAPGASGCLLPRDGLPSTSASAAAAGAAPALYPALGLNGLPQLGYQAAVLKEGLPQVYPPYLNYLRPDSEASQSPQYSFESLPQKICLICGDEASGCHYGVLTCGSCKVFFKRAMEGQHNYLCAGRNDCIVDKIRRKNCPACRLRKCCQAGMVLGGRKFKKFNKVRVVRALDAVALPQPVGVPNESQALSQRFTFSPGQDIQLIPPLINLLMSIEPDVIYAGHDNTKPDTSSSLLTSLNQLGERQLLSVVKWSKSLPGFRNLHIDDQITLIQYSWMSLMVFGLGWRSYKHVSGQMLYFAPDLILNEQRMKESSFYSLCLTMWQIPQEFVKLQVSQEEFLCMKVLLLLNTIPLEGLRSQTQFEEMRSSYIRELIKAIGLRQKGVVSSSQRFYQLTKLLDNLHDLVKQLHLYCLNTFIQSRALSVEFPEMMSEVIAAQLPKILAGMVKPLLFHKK

[5] = target: Beta-3 adrenergic receptor (Homo sapiens, UniProt P13945)
D(1A) dopamine receptor = D(1A) dopamine receptor (Homo sapiens, UniProt P21728)
Further: assay procedure not described here.

Sequence of Histamine H2 receptor (P25021 whole entry): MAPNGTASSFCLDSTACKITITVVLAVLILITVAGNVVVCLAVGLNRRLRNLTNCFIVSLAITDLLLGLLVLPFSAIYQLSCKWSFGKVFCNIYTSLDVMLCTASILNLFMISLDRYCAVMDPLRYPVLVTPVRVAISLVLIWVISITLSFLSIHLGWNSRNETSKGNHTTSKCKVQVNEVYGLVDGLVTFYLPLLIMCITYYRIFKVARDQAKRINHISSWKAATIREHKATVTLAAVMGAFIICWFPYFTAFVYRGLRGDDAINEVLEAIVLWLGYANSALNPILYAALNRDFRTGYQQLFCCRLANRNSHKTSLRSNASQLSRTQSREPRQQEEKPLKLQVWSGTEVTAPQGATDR
Sequence of D(1A) dopamine receptor (P21728 whole entry): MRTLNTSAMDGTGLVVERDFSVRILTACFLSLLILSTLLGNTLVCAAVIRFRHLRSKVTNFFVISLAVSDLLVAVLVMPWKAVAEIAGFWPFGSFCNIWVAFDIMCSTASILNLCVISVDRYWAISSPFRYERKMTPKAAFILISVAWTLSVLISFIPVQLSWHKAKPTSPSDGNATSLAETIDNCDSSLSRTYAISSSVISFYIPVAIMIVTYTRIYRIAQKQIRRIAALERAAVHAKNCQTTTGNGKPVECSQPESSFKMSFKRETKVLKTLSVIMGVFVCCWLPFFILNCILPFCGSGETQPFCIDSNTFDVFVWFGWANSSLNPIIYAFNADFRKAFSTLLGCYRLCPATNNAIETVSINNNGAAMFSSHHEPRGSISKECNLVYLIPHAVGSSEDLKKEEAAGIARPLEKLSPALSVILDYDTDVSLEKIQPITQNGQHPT
Sequence of Neurotensin receptor type 1 (P30989 whole entry): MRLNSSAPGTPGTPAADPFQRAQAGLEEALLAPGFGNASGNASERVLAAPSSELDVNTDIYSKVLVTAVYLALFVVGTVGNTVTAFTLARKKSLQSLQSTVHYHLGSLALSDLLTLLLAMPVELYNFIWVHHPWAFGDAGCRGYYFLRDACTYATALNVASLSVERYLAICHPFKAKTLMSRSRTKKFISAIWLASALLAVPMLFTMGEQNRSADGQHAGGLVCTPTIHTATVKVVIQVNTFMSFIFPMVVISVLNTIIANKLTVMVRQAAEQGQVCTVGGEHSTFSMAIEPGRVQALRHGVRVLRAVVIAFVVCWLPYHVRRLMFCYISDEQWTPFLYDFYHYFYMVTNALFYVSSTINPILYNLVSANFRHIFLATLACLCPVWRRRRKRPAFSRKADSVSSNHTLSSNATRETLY
Sequence of 5-hydroxytryptamine receptor 2B (P41595 whole entry): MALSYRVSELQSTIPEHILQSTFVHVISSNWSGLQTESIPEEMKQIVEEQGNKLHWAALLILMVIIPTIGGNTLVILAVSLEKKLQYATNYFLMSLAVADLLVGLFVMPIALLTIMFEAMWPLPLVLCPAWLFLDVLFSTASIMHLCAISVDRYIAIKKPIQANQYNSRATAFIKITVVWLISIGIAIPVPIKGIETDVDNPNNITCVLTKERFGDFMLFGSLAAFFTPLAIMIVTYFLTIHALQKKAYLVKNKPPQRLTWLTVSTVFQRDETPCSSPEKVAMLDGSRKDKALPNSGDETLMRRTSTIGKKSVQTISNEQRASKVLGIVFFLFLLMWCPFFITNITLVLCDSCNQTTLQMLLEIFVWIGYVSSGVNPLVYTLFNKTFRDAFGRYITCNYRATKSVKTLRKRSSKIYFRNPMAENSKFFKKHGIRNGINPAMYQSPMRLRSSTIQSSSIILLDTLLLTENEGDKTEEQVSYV
Sequence of Beta-3 adrenergic receptor (P13945 whole entry): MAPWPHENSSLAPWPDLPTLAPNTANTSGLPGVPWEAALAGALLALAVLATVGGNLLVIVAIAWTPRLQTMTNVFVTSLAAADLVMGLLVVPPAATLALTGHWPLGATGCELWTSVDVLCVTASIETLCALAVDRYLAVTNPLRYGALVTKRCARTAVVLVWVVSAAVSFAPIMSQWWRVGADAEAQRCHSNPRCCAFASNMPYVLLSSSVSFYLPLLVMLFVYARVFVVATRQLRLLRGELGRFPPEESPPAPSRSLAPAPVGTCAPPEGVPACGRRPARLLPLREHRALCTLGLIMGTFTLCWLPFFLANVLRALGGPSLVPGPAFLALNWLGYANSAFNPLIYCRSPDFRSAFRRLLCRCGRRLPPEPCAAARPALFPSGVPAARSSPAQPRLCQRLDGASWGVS

Compound	AC50 (Androgen receptor) [µM]	AC50 [1] [µM]	AC50 (Histamine H2 receptor) [µM]	AC50 [2] [µM]	AC50 [3] [µM]	AC50 [4] [µM]	AC50 (Progesterone receptor) [µM]	AC50 [5] [µM]	AC50 (D(1A) dopamine receptor) [µM]
CN(C)Cc1nnc2n1-c1ccc(Cl)cc1C(c1ccccc1)=NC2 [ADINAZOLAM]	> 10	–	–	–	–	–	–	–	–
Cc1ccccc1-n1c(CF)nc2ccc(N)cc2c1=O [AFLOQUALONE]	> 30	–	–	–	–	–	–	–	–
O=C(/C=C/c1cccc(S(=O)(=O)Nc2ccccc2)c1)NO [BELINOSTAT]	> 30	> 10	> 10	> 10	> 10	> 10	> 30	> 30	> 10
CC(O)(CS(=O)(=O)c1ccc(F)cc1)C(=O)Nc1ccc(C#N)c(C(F)(F)F)c1 (centres undefined) [BICALUTAMIDE]	–	> 10	> 10	> 10	> 10	> 30	> 30	> 30	> 10
O=C(O)COCCN1CCN(C(c2ccccc2)c2ccc(Cl)cc2)CC1 (centres undefined) [CETIRIZINE]	–	–	–	> 10	–	> 30	> 30	> 30	–
CC(=O)O[C@]1(C(C)=O)CC[C@H]2[C@@H]3C=C(Cl)C4=CC(=O)[C@@H]5C[C@@H]5[C@]4(C)[C@H]3CC[C@@]21C [CYPROTERONE ACETATE]	–	> 10	> 10	–	> 10	–	–	> 30	> 10
C[C@@H]1C[C@H]2[C@@H]3C[C@H](F)C4=CC(=O)C=C[C@]4(C)[C@@]3(F)[C@@H](O)C[C@]2(C)[C@@]1(OC(=O)c1ccco1)C(=O)SCF [FLUTICASONE FUROATE]	–	> 10	> 10	> 10	> 10	–	–	–	> 10
COc1ccc([C@@H]2CC(=O)c3c(O)cc(O)cc3O2)cc1O [HESPERETIN]	> 10	–	–	–	–	–	–	–	–
CN(C)CCCN1c2ccccc2CCc2ccccc21 [IMIPRAMINE]	–	0.454	0.0697	0.239	0.319	> 30	> 30	> 30	3.2
C=C1c2cccc(O)c2C(=O)C2=C(O)[C@]3(O)C(=O)C(C(N)=O)=C(O)[C@@H](N(C)C)[C@@H]3[C@@H](O)[C@H]12 [METHACYCLINE]	> 30	–	–	–	–	–	–	–	–
CN(Cc1cnc2nc(N)nc(N)c2n1)c1ccc(C(=O)N[C@@H](CCC(=O)O)C(=O)O)cc1 [METHOTREXATE]	> 30	> 10	> 10	–	> 10	> 30	> 30	> 30	> 10
CN[C@@H](C)[C@@H](O)c1ccccc1 [PSEUDOEPHEDRINE]	–	> 10	> 10	> 10	–	> 30	> 30	> 30	> 10
CCCN1CC(NS(=O)(=O)N(CC)CC)CC2Cc3c(O)cccc3CC21 (centres undefined) [QUINAGOLIDE]	–	–	–	–	0.324	–	–	–	–
